Here are results for eight compounds from PMC9134086, “Inhibition of Dipeptidyl Peptidase-4 by Flavonoids: Structure–Activity Relationship, Kinetics and Interaction Mechanism” (Frontiers in Nutrition, 2022).

Assay [1] relates to DPP-4. Details: method as in PMID 31441917. The settings on record: test concentration of 200 μM; cited from earlier work.
Assay [2] has as its target T1, DPP-4 (human recombinant) (Homo sapiens, UniProt P27487).
T1 construct: purchased Sigma Aldrich D3446
Kind of assay: In vitro assay for DPP-4 inhibitory activity (fluorescence, Gly-Pro-AMC).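 As to all read-outs here: fluorescence of released AMC (excitation 360 nm, emission 460 nm) followed kinetically over 30 min at 37 °C in Tris-HCl pH 8.0.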 In kind it is biochemical. The settings on record: for inhibition at 200 µM / % Inhibition at 200μM: flavonoid 200 μM, mean ± SD, three independent experiments; for inhibition at 200 µM: read-out: % Inhibition at 200μM; for IC50: DPP-4 inhibition, fluorescence method.

The target in assay [3] is T1, DPP-4 (human recombinant). The assay is described as follows: Fluorescence quenching experiments (Stern-Volmer, binding constant, thermodynamic parameters).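 As to all read-outs here: intrinsic DPP-4 fluorescence emission scanned 290–500 nm, corrected for flavonoid background and inner-filter absorbance, compared without versus with flavonoid quencher.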 The settings on record: for Kq (quenching rate constant): τ0 10^−8 s; for ΔH (enthalpy change) / ΔS (entropy change): from Kb at 298 and 310 K.
In assay [4] the target is T1, DPP-4 (human recombinant). Kind of assay: Inhibition kinetic analysis (V vs [DPP-4], Lineweaver-Burk, Dixon and Cornish-Bowden plots). In kind it is biochemical. The settings on record: for Kiu (uncompetitive inhibition constant): Cornish-Bowden equation; for Inhibition type: Lineweaver-Burk, Dixon and Cornish-Bowden plots, Gly-Pro-AMC 50–200 μM, DPP-4 0.42 mU/mL; for reversibility of the inhibition: plots of V vs [DPP-4] 0.21–0.84 mU/mL, 200 μM Gly-Pro-AMC; for Ki: Dixon equation, read-out: Kic (competitive inhibition constant); for 1/Kiu: reciprocal of uncompetitive inhibition constant.

Assay [5] relates to DPP-4. Also on record: method as in PMID 33063510. The note with it: different DPP-IV inhibitor screening assay kit; cited from earlier work.

“And” between values parts separate entries of the source, which are not always exact repeats. Equal values may be shown once.

T1 sequence (P27487 whole entry): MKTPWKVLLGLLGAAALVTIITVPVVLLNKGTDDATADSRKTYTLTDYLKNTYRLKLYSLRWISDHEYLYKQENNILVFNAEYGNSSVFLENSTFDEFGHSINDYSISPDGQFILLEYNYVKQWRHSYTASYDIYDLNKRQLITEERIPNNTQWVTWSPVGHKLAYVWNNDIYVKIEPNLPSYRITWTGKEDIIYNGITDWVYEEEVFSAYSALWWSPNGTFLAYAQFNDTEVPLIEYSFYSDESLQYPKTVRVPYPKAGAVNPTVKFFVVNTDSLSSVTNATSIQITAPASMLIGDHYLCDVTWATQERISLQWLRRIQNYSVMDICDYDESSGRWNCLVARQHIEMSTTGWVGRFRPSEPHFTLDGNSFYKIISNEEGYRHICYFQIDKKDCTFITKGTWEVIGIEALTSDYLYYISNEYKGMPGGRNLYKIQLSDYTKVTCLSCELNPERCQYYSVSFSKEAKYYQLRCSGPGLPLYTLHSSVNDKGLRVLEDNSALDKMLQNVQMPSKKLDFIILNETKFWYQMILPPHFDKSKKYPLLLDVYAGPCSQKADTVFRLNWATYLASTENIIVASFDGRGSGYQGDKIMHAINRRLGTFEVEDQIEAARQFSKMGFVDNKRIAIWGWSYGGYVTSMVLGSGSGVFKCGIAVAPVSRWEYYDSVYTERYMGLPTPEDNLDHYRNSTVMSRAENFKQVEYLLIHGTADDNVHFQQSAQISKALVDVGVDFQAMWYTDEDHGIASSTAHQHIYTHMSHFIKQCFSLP

One may read the inhibition as the change of the read-out against control, counted positive when it falls. As to `O=c1cc(-c2ccc(O)cc2)oc2cc(O)cc(O)c12` [A1, Apigenin], the inhibitory percentage in the assay on DPP-4 [1] was 44 ± 2%. The inhibition at 200 µM in assay [2] was 46.4 ± 1.49%.
For `O=C1C[C@@H](c2ccc(O)cc2)Oc2cc(O)cc(O)c21` [C6, Naringenin], the inhibitory percentage entry in the assay with DPP-4 [1] is reported as “lower than 20%”. Further, the inhibition at 200 µM in assay [2] is < 10%.
In the case of `O=C1c2c(O)cc(O)cc2OC(c2ccc(O)c(O)c2)C1O` (stereo not shown) [C8, Taxifolin], in the assay on DPP-4 [1], the inhibitory percentage result is “lower than 20%”. Besides, in assay [2], the inhibition at 200 µM is 19.9 ± 0.65%.
For orientation: % Inhibition means the change of the read-out against control, counted positive when it falls. As to `O=c1c(O[C@@H]2O[C@H](CO)[C@H](O)[C@H](O)[C@H]2O)c(-c2ccc(O)c(O)c2)oc2cc(O)cc(O)c12` [E4, Hyperoside], in assay [3] (298 K), the “KSV (Stern-Volmer quenching constant)” value is reported as 4.83 ± 0.01 ×10^4 L mol^−1, the “n (number of binding sites)” value is 1.04 ± 0.02, the “ΔG (Gibbs free-energy change)” value was -6.6334 kcal/mol and the “Kq (quenching rate constant)” value is listed as 4.83 ± 0.01 ×10^12 L mol^−1 s^−1. Besides, in assay [3] (310 K), the “KSV (Stern-Volmer quenching constant)” value is listed as 4.08 ± 0.01 ×10^4 L mol^−1, the “n (number of binding sites)” value came out at 1.03 ± 0.02, the “ΔG (Gibbs free-energy change)” value was -6.7641 kcal/mol and the “Kq (quenching rate constant)” value is 4.08 ± 0.01 ×10^12 L mol^−1 s^−1. Besides, in assay [3], the “ΔH (enthalpy change)” value was -3.3815 kcal/mol and the “ΔS (entropy change)” value was determined as 45.66 J mol^−1K^−1. In addition, in assay [2], the “% Inhibition at 200μM” value amounted to 62.10 ±0.16% and the inhibition at 200 µM is > 50%. For the same compound, in assay [4], the “Kiu (uncompetitive inhibition constant)” value was 14.8 ± 0.22 10^−5 mol L^−1, the Inhibition type result is recorded as “Mixed” and the “reversibility of the inhibition” value is “reversible”.
What is called IC50 is the concentration that inhibits the measured activity by half. For the compound `COc1cc(-c2oc3cc(O)cc(O)c3c(=O)c2O[C@@H]2O[C@H](CO[C@@H]3O[C@@H](C)[C@H](O)[C@@H](O)[C@H]3O)[C@@H](O)[C@H](O)[C@H]2O)ccc1O` [E21, Narcissoside], in assay [3] (298 K), the “KSV (Stern-Volmer quenching constant)” value is on record as 7.212 ± 0.01 ×10^4 L mol^−1, the “n (number of binding sites)” value stood at 1.22 ± 0.02, the “ΔG (Gibbs free-energy change)” value is -8.059 kcal/mol and the “Kq (quenching rate constant)” value is 7.212 ± 0.01 ×10^12 L mol^−1 s^−1. For the same compound, in assay [3] (310 K), the “KSV (Stern-Volmer quenching constant)” value is 6.389 ± 0.01 ×10^4 L mol^−1, the “n (number of binding sites)” value is given as 1.21 ± 0.02, the “ΔG (Gibbs free-energy change)” value is -8.305 kcal/mol and the “Kq (quenching rate constant)” value is reported as 6.389 ± 0.01 ×10^12 L mol^−1 s^−1. Besides, in assay [3], the “ΔH (enthalpy change)” value is -1.937 kcal/mol and the “ΔS (entropy change)” value is recorded as 85.93 J mol^−1K^−1. In addition, in assay [2], the IC50 is 167 µM and < 200 µM; the “% Inhibition at 200μM” value stood at 57.50 ±1.28%; the inhibition at 200 µM was > 50%. Also, in assay [4], the “Kiu (uncompetitive inhibition constant)” value was 22.3 ± 0.15 10^−5 mol L^−1, the Ki amounted to 116 ± 2.1 µM, the Inhibition type entry is given as “Mixed” and the “reversibility of the inhibition” value is given as “reversible”. For the same compound, the 1/Kiu in assay [4] was 0.44 ± 0.03 10^4 L mol^−1. In addition, the 1/Kic in assay [4] (reciprocal of competitive inhibition constant) is listed as 0.86 ± 0.02 10^4 L mol^−1.
Regarding `O=c1c(O)c(-c2ccc(O)c(O)c2)oc2cc(O)cc(O)c12` [E23, Quercetin], the inhibitory percentage with DPP-4 [1] is 46 ± 2%. For the same compound, in assay [2], the inhibition at 200 µM was 39.4 ± 0.58%. The “inhibitory percentage relative to rhamnetin (E27)” value in assay [2] (ratio of % inhibition at 200 μM, quercetin vs rhamnetin) was determined as 1.77 times.
In the case of `OCC1OC(Oc2cc3c(O)cc(O)cc3[o+]c2-c2ccc(O)c(O)c2)C(O)C(O)C1O` (stereo not shown) [F2, Cyanidin 3-O-glucoside chloride], the IC50 in the assay with DPP-4 [5] is 8.26 µM. In assay [3] (298 K), the “KSV (Stern-Volmer quenching constant)” value is 3.64 ± 0.04 ×10^4 L mol^−1, the “n (number of binding sites)” value is reported as 1.05 ± 0.01, the “ΔG (Gibbs free-energy change)” value was -6.577 kcal/mol and the “Kq (quenching rate constant)” value is given as 3.64 ± 0.04 ×10^12 L mol^−1 s^−1. Further, in assay [3] (310 K), the “KSV (Stern-Volmer quenching constant)” value is recorded as 3.08 ± 0.06 ×10^4 L mol^−1, the “n (number of binding sites)” value was found to be 1.04 ± 0.01 and the “Kq (quenching rate constant)” value is reported as 3.08 ± 0.06 ×10^12 L mol^−1 s^−1. Besides, in assay [3], the “ΔH (enthalpy change)” value is -1.971 kcal/mol and the “ΔS (entropy change)” value worked out at 64.68 J mol^−1K^−1. In assay [2], the half-maximal inhibitory concentration (IC50) is 81.1 ± 4.14 µM, the “% Inhibition at 200μM” value was 68.05 ±0.15% and the inhibition at 200 µM was > 50%. Besides, the “inhibitory percentage relative to cyanidin (F1)” value in assay [2] (ratio of % inhibition at 200 μM, cyanidin 3-O-glucoside vs cyanidin) came out at 3.62 times. In addition, in assay [4], the “Kiu (uncompetitive inhibition constant)” value is listed as 18.37 ± 0.24 10^−5 mol L^−1, the Ki was 74.3 ± 1.2 µM, the Inhibition type entry was “Mixed” and the “reversibility of the inhibition” value was “reversible”. The 1/Kiu in assay [4] was 0.57 ± 0.03 10^4 L mol^−1.
`O=C(/C=C/c1ccc(O)cc1)c1ccc(O)cc1O` [G1, Isoliquiritigenin]: the “ΔH (enthalpy change)” value in assay [3] was -1.901 kcal/mol. Moreover, in assay [2], the IC50 was 150 µM and < 200 µM; the inhibition at 200 µM is > 50%. In assay [4], the “Kiu (uncompetitive inhibition constant)” value is given as 26.7 ± 0.34 10^−5 mol L^−1 and the Ki was found to be 98.2 ± 3.4 µM.
